The results in this text go back to patent publication EP4160211A1, “DETECTING THE EXPOSURE OF A SUBJECT TO A THYROID DISRUPTING CHEMICAL, EVEN BEFORE HYPOTHYROIDISM APPEARS” (Moreno Navarro, José Carlos, priority 2021, dated 2023).

pIC50: −log10 of the molar value. Like-named read-outs stand apart in the source and are kept apart here.

In data set [1] the target is T1, Dehal1 (Homo sapiens, UniProt Q6PHW0).
T1 construct: expressed in transfected cells; host or cells: HEK293
T1 sequence (Q6PHW0 1-289): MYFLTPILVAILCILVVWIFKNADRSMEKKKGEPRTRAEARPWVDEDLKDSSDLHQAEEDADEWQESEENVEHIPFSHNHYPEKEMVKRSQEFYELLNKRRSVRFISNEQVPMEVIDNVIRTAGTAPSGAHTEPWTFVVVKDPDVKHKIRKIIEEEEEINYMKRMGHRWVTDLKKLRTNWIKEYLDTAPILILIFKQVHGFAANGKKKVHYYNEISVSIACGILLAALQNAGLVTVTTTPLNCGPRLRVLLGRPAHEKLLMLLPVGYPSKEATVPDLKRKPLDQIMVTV
In words: In vitro Dehal1 inhibition assay (inhibition of 125I-MIT deiodination in homogenates of DEHAL1-transfected HEK293 cells). It counts as biochemical. As to the method: Human embryonic kidney (HEK293) cells were grown in Dulbecco's modified Eagle medium (Gibco) supplemented with 10% fetal calf serum and 0.1 mM flavin mononucleotide (FMN, MP Biochemicals) in 6-well plates. At 50% confluency, cells were transfected with 1 µg of wild-type or mutant DEHAL1 plasmid or empty pcDNA3.1 plasmid, using Fugene6 (Roche). After 24 h incubation, cells were washed with 1 ml PBS and collected in 0.5 ml PED buffer (0.1 M phosphate, pH 7.2, 2 mM EDTA, 1 mM dithiothreitol) per well and kept on ice. Samples were sonicated twice for 10 sec using Soniprep150, frozen on dry ice-ethanol and stored at -80 °C. For experiments testing FMN-response, culture medium was supplemented with 0-2 mM FMN.
The experiments follow described methods to determine the MIT deiodination capacity of Dehal1-transfected cells (8), adding the candidate chemicals to test their capacity to inhibit such reaction. Basically, labelled [^125I]MIT was prepared by radioiodination of L-tyrosine (Sigma-Aldrich) with ^125I - (specific activity: 15 Ci/mg, Amersham Biosciences) using the chloramine-T method and purified by chromatography on cation-exchange resin (Dowex 50WX2-200, Sigma-Aldrich). […] Incubations contained […] [^125I]MIT, 0.1 µM unlabeled MIT and 10-25 µg cell homogenate protein in a final volume of 0.1 ml PED buffer. Reactions were started by the addition of NADPH (final concentration 0.1 mM), and the mixtures were incubated for 60 min at 37°C. Reactions were stopped by the addition of 0.9 ml of 10% acetic acid on ice. Samples were applied to 2 ml Dowex 50WX2-200 columns, and successively eluted with 3x1 ml 10% acetic acid (containing eluted iodide), 1 ml water, and 4×1ml 1 M NH4OH (containing iodotyrosines). Radioactivity was measured in each fraction in a NE1600 gamma counter (NE Technologies) and percentage deiodination was calculated. Protein concentrations in cell homogenates were measured by Bradford's assay; iodotyrosine deiodinase activity was corrected for the slight 1251 - production in empty pcDNA3.1-transfected cell homogenates and expressed per mg protein.
For the general screen of inhibition potential of each compound, 10 µM unlabeled chemicals tested (Sigma-Aldrich) were added to the incubation mixture together with […] unlabeled MIT with no further modifications on the protocol above. Said chemical tested were: Tetrabromobisphenol A (TBBPA), Bisphenol A (BPA), Pentachlorophenol (PCP), tetraiodophenol (TIP), Tetrabromophenol (TBP), tetrachlorophenol (TCP), tetraafluorophenol (TFP), Di-iodo-nitro-Pheol (DINP), Di-chloro-nitrophenol (DCNP), Dibromophenol (DBP), Diclorophenol (DCP), iodophenol (IP), Bromophenol (BP), Fluorophenol (FP), phenol (P), Tyrosien(Tyr), mononitrotyrosine (MNT), monochlorotyrosine (MCT), Monoiodotyrosine (MIT), Diiodotyrosine (DIT). As negative controls: empty pcDNA-transfected cells, DMSO, NaOH and Buffer.
Crude deiodination capacity obtained in individual chemical-containing mixture was calculated, including the vehicle (DMSO)-containing mixture. Percentage inhibition of each compound was determined with respect to the vehicle containing mixture. For inhibition curves of particular compounds, equimolar concentrations of unlabeled MIT (0, 0.1, 1, 10, 100 µM) and BPA, TBBPA, PCP and MNT were used, and % inhibition of individual compounds was calculated as above.

The subject of data set [2] is thyroid hormone axis. In words: In vivo administration to mice: hormonal and biochemical effects in plasma and urine. The following applies: for UIC / UIC % variation: urine. As to the method:
Mice. Female wild type mice from C57BI/6 J strain were purchased from Charles River company. Animals were maintained under standard conditions of temperature (22-24°C), humidity (40-50%), 12-12 hours of dark/light cycle, water and rodent diet ad libitum. Five months old female mice were acclimatized prior to the experiment and handled based on animal bioethical protocols. The experimental procedures were approved by the Research Ethical Committee of the Autonomous University of Madrid and the competent department of Comunidad de Madrid. Tetrabromobisphenol A powder (TBBPA, 97% purity) obtained through Sigma-Aldrich was dissolved in a vehicle containing 25% ethanol and 75% of peanut oil. A TBBPA dose of 500 mg/kg of body weight was injected subcutaneously for 7 days. Blood and urine collection were performed at the end of the experiment (Fig. 1).
Blood, urine and tissue collection. At day 7, blood was collected from cardiac puncture in heparinized tubes and centrifuged (2000 g for 10 minutes) to isolate plasma. Urine was collected using hydrophobic sand (Coastline Global, USA). Samples were kept at -20°C until used. For tissue isolation, mice were kept under deep anesthesia (Sevorane) and euthanized by cervical dislocation.
Previously published methods were modified to allow the simultaneous quantification of MIT, DIT, T3, T4.
Sample preparation: 100 µL of urine/plasma were added with suitable amounts of stable isotope-labeled internal standards (5.4 pmol 13C9-MIT, 4.0 pmol 13C9-DIT, 2.8 pmol 13C6-T3, 2.4 pmol 13C6-T4), vortexed, stored 30 min at room temperature to equilibrate, and deproteinized with the addition of 300µL of cold-acetone and the storage at 4°C for 30 min. After centrifugation at 22780 × g for 10 min, supernatants were dried at 40 °C under a gentle stream of nitrogen, derivatized with 200 µL of 3.0 N hydrochloric acid in n-butanol and incubated for 45 min at 60 °C, for the formation of the corresponding butyl esters of tyrosines, thyroid hormones, and their internal standards. After further evaporation to dryness, the sample was reconstituted with 500 µL of 0,1 M potassium buffer (pH=4) and loaded onto Agilent (Santa Clara, CA, USA) Bond-Elut Certify 130 mg SPE cartridges, to perform the extraction according to the procedure described by Saba et al.. The eluate was dried once again under nitrogen, the dried residue was reconstituted with 100 µL of acetonitrile/0.1 M hydrochloric acid (50/50 by volume), and 1µL of it was injected into the HPLC-MS-MS system. Calibration curves ranged from 0.1 to 100.0 ng/mL and were daily prepared by serial dilution in methanol and derivatized with samples.
Instrument layout: AB-Sciex (Concord, Ontario, Canada) QTRAP 6500+ triple quadrupole mass spectrometer with ESI source, coupled to an Agilent (Santa Clara, CA, USA) 1290 UHPLC system, fitted with a 110 Å, 2x50 mm, 3µm particle size, Gemini C18 column (Phenomenex, Torrance, CA).
Operative conditions: the chromatographic separation was carried out at 400 µL/min as a flow rate, using methanol/acetonitrile (20/80, by volume) added with 0.1% formic acid (solvent A) and water containing 0.1% formic acid (solvent B). The elution gradient was the following: 95 % solvent B from 0 to 3 min; 35 % solvent B from 3 to 8.5 min; 0 % solvent B from 8.5 to 9 min; 0 % solvent B from 9 to 11 min; 95 % solvent B from 11 to 14 min (equilibration step). […] Three transitions were used to monitor each compound and internal standard: that one with the highest signal/noise ratio was used as a quantifier (Q), while the other two as qualifiers (q).

The mark [3] stands for this setting: dose-response inhibition assay, 0-100 µM.
Where [4] appears, read: general screen, compound at 10 µM.
Where [5] appears, read: MNT 1mg/Kg b.w./day, for 7 days.
[6] abbreviates: vs WT, MNT 1mg/Kg b.w./day, for 7 days.
The mark [7] stands for this setting: read-out: inhibition of Dehal1 activity.
[8] abbreviates: TBBPA 500 mg/kg b.w/day subcutaneously for 7 days.
Setting [9] is: TBBPA 500 mg/kg b.w/day subcutaneously for 7 days, plasma.
The mark [10] stands for this setting: vs WT, TBBPA 500 mg/kg b.w/day for 7 days.
The mark [11] stands for this setting: vs WT, TBBPA 500 mg/kg b.w/day for 7 days, plasma.

Take `CC(C)(c1ccc(O)cc1)c1ccc(O)cc1` [BPA, Bisphenol A, reference compound]: in data set [1] (setting [3]), the inhibition capacity entry was “no inhibition capacity”.
Consider `N[C@@H](Cc1cc(I)c(O)c(I)c1)C(=O)O` [DIT, Diiodotyrosine, reference compound], for which the “inhibition of labeled-MIT deiodination” value in data set [1] (setting [4]) is reported as “maximal inhibition”.
On to `N[C@@H](Cc1ccc(O)c(I)c1)C(=O)O` [MIT, Monoiodotyrosine, reference compound], for which the “inhibition of labeled-MIT deiodination” value in data set [1] (setting [4]) was “maximal inhibition”.
Turning to `N[C@@H](Cc1ccc(O)c([N+](=O)[O-])c1)C(=O)O` [MNT, 3-L-nitrotyrosine, reference compound], the pIC50 (usually the IC50 on a negative log10 scale, so that one unit is a factor of ten) in data set [1] (setting [3]) is over 8.00. The “inhibition of labeled-MIT deiodination” value in data set [1] (setting [4]) is given as “maximal inhibition”. Further, in data set [2] (setting [5]), the DIT-urine was 0.29 ± 0.06 ng/mL, the MIT-urine worked out at 1.94 ± 0.13 ng/mL, the MIT/DIT urine is listed as 6,69 and the T3 was 0.27 ± 0.02 ng/mL. In data set [2] (setting [5]), this compound displayed a T4 of 25.35 ± 1.2 ng/mL, a TSH of 1.07 ± 0.07 mU/L and a UIC of 198 ± 14.43 µg/L. In data set [2] (setting [6]), the DIT-urine % variation is given as -19%, the MIT-urine % variation result is given as “+46%”, the “MIT/DIT urine % variation” value was “+80%” and the T3 % variation is -5%. Moreover, in data set [2] (setting [6]), the T4 % variation result is reported as “+8%”, the TSH % variation result was “+7%” and the UIC % variation entry is “+47%”.
Compound `Oc1c(Cl)c(Cl)c(Cl)c(Cl)c1Cl` [PCP, Pentachlorophenol] showed a pIC50 in data set [1] (setting [3]) of about 4.60. Also, in data set [1] (setting [7]), the inhibition (usually the percentage by which the read-out fell short of the control) at 10 µM is 22% and the inhibition at 100 µM worked out at 78%. Besides, the inhibition at 10 µM in data set [1] (read-out: inhibition of labeled-MIT deiodination) came out at 55%.
In turn, `CC(C)(c1cc(Br)c(O)c(Br)c1)c1cc(Br)c(O)c(Br)c1` [TBBPA, Tetrabromobisphenol A] had a pIC50 in data set [1] (setting [3]) of about 4.60. In data set [1] (dose-response inhibition assay, 10 µM, read-out: inhibition of Dehal1 activity), the inhibition at 10 µM was 18%. Moreover, the inhibition at 100 µM in data set [1] (dose-response inhibition assay, 100 µM, read-out: inhibition of Dehal1 activity) came out at 78%. The inhibition at 10 µM in data set [1] (general screen, compound at 10 µM, read-out: inhibition of labeled-MIT deiodination) worked out at 37%. Besides, the T3 result in data set [2] (TBBPA 500 mg/kg b.w/day for 7 days, plasma) was “remained unchanged”. Moreover, in data set [2] (setting [8]), the DIT-plasma was determined as 0.06 ± 0.01 ng/mL, the DIT-urine stood at 0.23 ± 0.04 ng/mL, the MIT-plasma was 0.21 ± 0.01 ng/mL and the MIT-urine came out at 2.53 ± 0.11 ng/mL. Besides, in data set [2] (setting [8]), the MIT/DIT plasma is reported as 3,5, the MIT/DIT urine amounted to 11 and the UIC was 170.6 ± 13.9 µg/L. Also, in data set [2] (setting [9]), the T4 turned out to be 14.45 ± 1.65 ng/mL and the TSH amounted to 1.3 ± 0.025 mU/L. In data set [2] (setting [10]), the DIT-plasma % variation is on record as -62%, the DIT-urine % variation is listed as -36%, the MIT-urine % variation entry is “+73%” and the “MIT/DIT plasma % variation” value is on record as “+250%”. Further, in data set [2] (setting [10]), the “MIT/DIT urine % variation” value is reported as “+172%” and the UIC % variation result is “+127%”. In data set [2] (setting [11]), the T4 % variation is reported as -38% and the TSH % variation result is “+23%”.
